From patent US6034053A, “EGF-isoflavone conjugates for the prevention of restenosis” (Wayne Hughes Institute, priority 1998, dated 2000)

Test system: vascular injury-induced neointimal hyperplasia
Experiment: Murine restenosis model: photoactivated rose bengal vascular injury of the femoral artery, histomorphometric analysis
Type: in vivo, C57B1/6 mice
Details: for Stenosis Index (Mean ± SE), neointima/media ratio in areas of maximum neointimal hyperplasia, 4 weeks: 4 weeks after injury, i.p., EGF-Gen 0.1 mg/kg/dose twice daily for 28 days, Gen or quinazolines 2 mg/kg/dose once per day in 10% DMSO
Protocol: Three to four week old C57 B1/6 male mice (Taconic, Germantown, N.Y.) were housed in micro-isolator cages on a 12-hour day/night cycle and kept for 2 weeks on the Paigen's cocoa butter diet of 15.8% fat, 1.25% cholesterol and 0.5% sodium cholate (Harlan Teklad, Madison, Wis., U.S.A.) to induce high plasma cholesterol levels similar to those of patients with lipid disorders.
Mice were injected with 300 microliters of a 3 mg/ml photoactivated rose bengal solution (Aldrich, Milwaukee, Wis.) in sterile PBS via the tail vein and anesthetized with ketamine/xylazine solution (100 mg ketamine/kg and 5 […]). Photoactivation of rose bengal using percutaneous irradiation with a green light source (300 Watt Xenon arced lamp equipped with a 550 nanometer broad band interference filter, Oriel Scientific, Stratford, Conn.) was performed on the shaved left leg by placing a 3.2 mm glass fiber optic light guide directly into the left femoral vein/artery for 10 minutes. The unirradiated right femoral artery served as an internal control.
Following irradiation the mice were treated for either 14 days or 28 days with intraperitoneal injections of (1) EGF-Gen conjugate or unconjugated EGF (modified EGF not conjugated to genistein) at a dose level of 0. I mg/kg/dose once in the morning and once in the evening; or (2) 2 mg/kg/dose of unconjugated genistein or derivatives of 6,7-dimethoxyquinizalone dissolved in 10% DMSO once per day; or (3) with PBS.
At the times indicated, the animals were euthanized with ketamine/xylazine and perfused with PBS followed by 4% phosphate buffered formalin. PBS and formalin were pumped through the left ventricle of the heart and allowed to exit through a 3 mm incision through the interior wall of the right ventricle. […] Serial sections were examined for areas of maximum neointimal hyperplasia for which the ratios of neointima/media (stenosis index) were determined. […]
All numeric data are shown as mean±SEM. […] Cumulative percentage plots were analyzed using Wilcoxon statistics by Statview, Abacus Concepts, Inc., Berkeley, Calif. […]

Structure (SMILES): O=c1c(-c2ccc(O)cc2)coc2cc(O)cc(O)c12 [Gen, 5,7,4'-trihydroxyisoflavone, reference compound]
- Stenosis Index (Mean ± SE), neointima/media ratio in areas of maximum neointimal hyperplasia, 4 weeks: 1.03 ± 0.18
- Stenosis Index (Mean ± SE), neointima/media ratio in areas of maximum neointimal hyperplasia, 4 weeks (listed as unconjugated Gen): 1.03±0.18
- Effect on neointimal hyperplasia / neointima formation (in words) (injured femoral arteries, EGF-Gen at less than 5% of the highest nontoxic dose): ineffective
